Test results published in patent publication US20210000904A1, “NOVEL USE OF MAYDIS STIGMA EXTRACT IN PROPHYLAXIS AND THERAPY OF SLEEP DISORDER” (KONKUK UNIVERSITY GLOBAL INDUSTRY-ACADEMIC COLLABORATION …, priority 2018, published 2021).

Tested on: ICR mice
Assay: Caffeine sleep deprivation model with pentobarbital-induced sleep
Format: in vivo, mouse
Settings: caffeine 10 mg/kg i.p., pentobarbital 42 mg/kg after 30 minutes

For `Cn1c(=O)c2c(ncn2C)n(C)c1=O` [caffeine], the “sleep duration decrease compared to negative control group” value was 1,000 seconds and the “sleep onset time increase compared to negative control group” value was “about 50 seconds”.
